Measurements from US6458357B1, “Retro-inverso neurotrophic and analgesic peptides” (Myelos Corporation, priority 1997, dated 2002).
“Also recorded” adds a separate entry of the source. Where a SMILES comes first, the peptide text is derived from it. Where no end group is shown, it is not given here. [ ]: non-standard residue; d: D form.

Key:
neurite outgrowth = conditions: system not specified; cited from earlier work
[1] = in vivo; cited from earlier work
neuroblastoma cells [2] = conditions: cited from earlier work
[3] = system: choline acetyltransferase activity; conditions: neuroblastoma cells in vitro; cited from earlier work
neuroblastoma cells [4] = conditions: neuroblastoma cells in vitro; cited from earlier work
[5] = system: mouse cerebellar explants; conditions: cited from earlier work
[6] = Integrity (intactness) of peptide D4 in organs by HPLC 60 minutes after injection; format: in vivo, rat
Method: In another study, an aliquot of brain, liver, lung and kidney was taken 60 minutes after injection for HPLC analyses (Vydac C4 column) to determine the integrity (intactness) of the peptide in brain, blood and kidney. Peptide D4 was 95% intact in these organs, indicating the in vivo stability of this peptide after 60 minutes. The peak at 16 min. is intact D4; a breakdown product peak is evident at 4 min.

[7] = Localization of 125I-labelled peptide D4 in organs after intramuscular injection
Method: After 20 min., the rat was anesthetized, perfused with PBS and the organs removed and counted in a gamma counter.

[8] = system: NS20Y neuroblastoma cells; test: NS20Y neuroblastoma neurite outgrowth assay; format: cell-based; conditions: for neurite outgrowth (neuritogenic activity): 0.5-8 ng/ml peptide, 24 hours, DMEM 0.5% FCS
Method: NS20Y neuroblastoma cells were grown in DMEM containing 10% fetal calf serum (FCS). Cells were removed with trypsin and plated in 30 mm petri dishes onto glass coverslips. After 20-24 hours, the medium was replaced with 2 ml DMEM containing 0.5% FCS plus 0, 0.5, 1, 2, 4 or 8 ng/ml effector peptides. Cells were cultured for an additional 24 hours, washed with PBS and fixed with Bouin's solution (saturated aqueous picric acid/formalin/acetic acid 15:5:1) for 30 minutes. Fixative was removed with PBS and neurite outgrowth was scored under a phase contrast microscope. […] At least 200 cells were scored in different portions of each dish to determine the percentage of neurite bearing cells and assays were performed in duplicate.
Increased neurite outgrowth was evident using as little as 0.5 ng/ml peptide.

[9] = system: newborn mouse cerebellar explants; test: Ex vivo myelination assay in newborn mouse cerebellar explants; format: cell-based; conditions: added on second day, observed for 22 days in culture; saposin C positive control 1-10 μg/ml
Method: Newborn mouse cerebellar explants are prepared according to Satomi (Zool. Sci. 9:127-137, 1992). Neurite outgrowth and myelination are observed for 22 days in culture, during the period when the newborn mouse cerebellum normally undergoes neuronal differentiation and myelination begins. D2, D3, D4, D5 or another peptide including SEQ ID NO: 12 is added on the second day after preparation of the explants (three control and three treated explants) and outgrowth of neurites and myelination are assessed under a bright field microscope with a video camera. Saposin C is used as a positive control at a concentration of between about 1 and 10 μg/ml.

[10] = system: NS20Y neuroblastoma cells; test: Cell death assay, trypan blue staining of NS20Y cells in low serum; format: cell-based; conditions: for reduction of the number of trypan blue-positive (dead) cells: NS20Y cells, 8 ng/ml peptide, 2 days in 0.5% fetal bovine serum; for prevention of cell death: neuroblastoma cells in culture
Method: NS20Y cells were plated as described in Example 1 and grown on glass coverslips in 0.5% fetal bovine serum for 2 days in the presence or absence of 8 ng/ml effector peptides. Media was removed and 0.2% trypan blue in PBS was added to each well. Blue-staining dead cells were scored as a percentage of the total on an inverted microscope, counting 400 cells in four areas of each well. The average error of duplicates was ±5%.

18-mer: YKEVTKLIDNNKTEKEIL; SEQ ID NO: 2; within the active 22-mer of saposin C, V replaced by Y (Homo Sapien)
neurite outgrowth (neurite outgrowth): promotes neurite outgrowth | crossing of the blood-brain barrier [1]: crosses the blood brain barrier; also recorded: able to cross the blood-brain barrier

22-mer: CEFLVKEVTKLIDNNKTEKEIL; SEQ ID NO: 1; amino acids 8-29 of human saposin C (Homo Sapien)
neurite outgrowth (neuroblastoma cells [2]): stimulates neurite outgrowth | choline acetyltransferase activity [3]: stimulates choline acetyltransferase activity | prevention of cell death (neuroblastoma cells [4]): prevented cell death | neurite outgrowth [5]: stimulates neurite outgrowth

CC(C)C[C@@H](NC(=O)[C@@H](CC(C)C)NC(=O)[C@@H](CC(=O)O)NC(=O)[C@@H](CC(N)=O)NC(=O)[C@@H](CC(N)=O)NC(=O)[C@@H](C)NC(=O)[C@H](NC(=O)[C@@H](CCC(=O)O)NC(=O)[C@@H](CCC(=O)O)NC(=O)[C@@H](CC(C)C)NC(=O)[C@@H](CC(C)C)NC(=O)[C@H](N)Cc1ccc(O)cc1)[C@H](C)O)C(=O)O [peptide D4] (H-[dY][dL][dL][dE][dE][dT][dA][dN][dN][dD][dL][dL]-OH; N-terminus and C-terminus assumed)
in vivo stability ([6]; 60 minutes after injection): stable in vivo | crossing of the blood brain barrier ([6]; after intramuscular injection, rat): crosses the blood brain barrier in amounts sufficient to exert a therapeutic effect | presence of peptide in the brain ([7]; after intramuscular injection into a rat): significant amounts | concentration in brain relative to required neurotrophic dose for neural cells determined in vitro ([7]; brain, 20 min after 200 μg/kg intramuscular, rat): approximately 20 times

D3: retro-inverso peptide YLEETANNDLLAT; SEQ ID NO: 11 ([dY][dL][dE][dE][dT][dA][dN][dN][dD][dL][dL][dA][dT]; also: retro-inverso)
neurite outgrowth (neuritogenic activity) [8]: promoted neurite outgrowth in vitro | stimulation of myelination [9]: to a similar extent as with saposin C

TX14(A): TXLIDNNATEEILY, X=D-alanine; SEQ ID NO: 4; modified 15-mer of human saposin C (T[dA]LIDNNATEEILY) [TX…, X=D-alanine; modified 15-mer of human saposin C, reference compound]
neurite outgrowth (neuritogenic activity) [8]: exhibited neuritogenic activity; also recorded: induced neurite outgrowth | reduction of the number of trypan blue-positive (dead) cells [10]: about 50% | prevention of cell death [10]: prevented cell death in neuroblastoma cells in culture to the same extent

peptide D2: YLIEETANNDILAT, all D-amino acids; SEQ ID NO: 5; retro-inverted TX14(A) ([dY][dL][dI][dE][dE][dT][dA][dN][dN][dD][dI][dL][dA][dT]; also: retro-inverted)
neurite outgrowth activity compared with TX14(A) [8]: slightly more active that TX14(A); also recorded: slightly more effective than TX14(A) | neurite outgrowth (neuritogenic activity) [8]: exhibited neuritogenic activity; also recorded: induced neurite outgrowth | reduction of the number of trypan blue-positive (dead) cells [10]: about 50% | prevention of cell death [10]: prevented cell death in neuroblastoma cells in culture to the same extent | stimulation of myelination [9]: to a similar extent as with saposin C

rat 14-mer: rat 14-mer derived from the saposin C active sequence, SELIINNATEELLY; SEQ ID NO: 6 (Homo Sapien) [reference compound]
neurite outgrowth (neuritogenic activity) [8]: induced neurite outgrowth

B1: saposin C: small heat-stable glycoprotein generated by proteolytic processing of prosaposin (protein, UniProt P07602 311-390, looked up)
Saposin-C: SDVYCEVCEFLVKEVTKLIDNNKTEKEILDAFDKMCSKLPKSLSEECQEVVDTYGSSILSILLEEVSPELVCSMLHLCSG
modifications: Saposin-C
myelination (neurite outgrowth): promote increased myelination | neurite outgrowth (neurite outgrowth): stimulate neurite outgrowth
